Reference: ChEMBL document CHEMBL4706759, “Novel Substituted Pyrazines as Splicing Modulators for Modulating Splicing of mRNA and Uses Thereof for Treating Diseases” (ACS Med Chem Lett, 2021)

Tests used:
SMN2 pre-mRNA [1] = assay: Modulation of SMN2 mRNA splicing in spinal muscular atrophy patient fibroblasts measured after 24 hrs by TaqMan qPCR analysis; type: tissue-based, Homo sapiens; conditions: fibroblast
SMN2 pre-mRNA [2] = assay: Modulation of SMN2 mRNA splicing in spinal muscular atrophy patient fibroblasts assessed as change in SMN protein expression measured after 48 hrs by MSD analysis; parameters: species or system Homo sapiens; conditions: fibroblast

SMILES | EC50 (SMN2 pre-mRNA [1]) [nM] | EC50 (SMN2 pre-mRNA [2]) [nM]
CN(c1cnc(-c2ccc(-c3cn[nH]c3)cc2O)cn1)[C@H]1C[C@@H]2CCC[C@@H](N2)[C@H]1F | 16 | 0.01
CN(c1cnc(-c2cc(F)c(-c3cn[nH]c3)cc2O)cn1)[C@H]1C[C@@H]2CC[C@@H](N2)[C@H]1F | 16 | 0.01
CN(c1cnc(-c2ccc(-c3ccn(C)c(=O)c3)cc2O)cn1)[C@@H]1C[C@H]2CCC[C@H](N2)[C@@H]1F | 51 | 0.01
CN(c1cnc(-c2ccc(-c3cn[nH]c3)cc2O)cn1)[C@H]1C[C@]2(C)CCC[C@@](C)(N2)[C@H]1F | 16 | 0.01
CN(c1cnc(-c2ccc(-c3cn[nH]c3)cc2O)cn1)[C@H]1C[C@@H]2CC[C@@](C)(N2)[C@H]1F | 16 | 0.01
CN(c1cnc(-c2ccc(-c3cn[nH]c3)cc2O)cn1)[C@H]1C[C@@H]2CC[C@@H](N2)[C@H]1F | 16 | 0.01
